The record followed here is patent US10508077B2 (FORMA Therapeutics, Inc., priority 2015, dated 2019).

This experiment deals with T1, Full length human recombinant HDAC8 protein (Homo sapiens, UniProt Q9BY41).
T1 construct: Full length human recombinant HDAC8 protein was expressed in baculoviral system; made in house
T1 sequence (Q9BY41 1-377): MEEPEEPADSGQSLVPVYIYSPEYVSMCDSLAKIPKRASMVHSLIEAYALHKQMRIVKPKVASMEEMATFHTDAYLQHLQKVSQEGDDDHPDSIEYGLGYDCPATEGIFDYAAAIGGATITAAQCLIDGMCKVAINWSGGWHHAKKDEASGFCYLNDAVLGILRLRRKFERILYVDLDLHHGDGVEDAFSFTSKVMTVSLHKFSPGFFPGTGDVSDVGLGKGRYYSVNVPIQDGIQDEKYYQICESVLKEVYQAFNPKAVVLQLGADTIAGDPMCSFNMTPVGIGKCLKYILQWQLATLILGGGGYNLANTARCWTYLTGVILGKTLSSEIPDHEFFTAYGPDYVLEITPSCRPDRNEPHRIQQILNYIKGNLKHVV
Briefly: In vitro histone deacetylase assay: enzymatic HDAC8 assay, electrophoretic mobility shift. The following applies: substrate RHKK(Ac)-NH2, 1 nM enzyme, compounds listed under IC50 range headings. The class given is biochemical. In short, it runs like this: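 Readout was microfluidic mobility-shift separation of deacetylated product from fluorescent RHKK(Ac)-NH2 substrate (2 µM), after reaction with 1 nM recombinant full-length human HDAC8 at 25 °C, pH 7.5, stopped with SDS. Twelve 3-fold-spaced concentrations tested; product/sum ratios normalized to controls and fitted with a 4-parameter model for IC50.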

Where only a bound is given, the exact number is not on record here.

On to `O=C(/C=C/c1ccccc1N1CCN(C(=O)c2ccc3[nH]nnc3c2)CC1)NO` [Example I-215, (E)-3-(2-(4-(1H-benzo[d][1,2,3]triazole-5-carbonyl)piperazin-1-yl)phenyl)-N-hydroxyacrylamide], for which the half-inhibitory concentration (IC50) is less than 1000 nM.
As for `CC(C)N(Cc1cccc(C(F)(F)F)c1)c1ccccc1/C=C/C(=O)NO` [Example I-216, (E)-N-hydroxy-3-(2-(isopropyl(3-(trifluoromethyl)benzyl)amino)phenyl)acrylamide], the half-inhibitory concentration (IC50) is less than 1000 nM.
For `O=C(/C=C/c1cccnc1CNc1ccc(-c2ccccc2)c(C(F)(F)F)c1)NO` [Example I-217, (E)-N-hydroxy-3-(2-(((2-(trifluoromethyl)-[1,1′-biphenyl]-4-yl)amino)methyl)pyridin-3-yl)acrylamide] the value was less than 1000 nM; for `Cc1nn(C)c(Cl)c1S(=O)(=O)NC1CCN(c2ccccc2/C=C/C(=O)NO)CC1` [Example I-218, (E)-3-(2-(4-((5-chloro-1,3-dimethyl-1H-pyrazole)-4-sulfonamido)piperidin-1-yl)phenyl)-N-hydroxyacrylamide], less than 1000 nM; for `Cc1noc(C)c1S(=O)(=O)NC1CCN(c2ccccc2/C=C/C(=O)NO)CC1` [Example I-220, (E)-3-(2-(4-((3,5-dimethylisoxazole)-4-sulfonamido)piperidin-1-yl)phenyl)-N-hydroxyacrylamide], less than 1000 nM.
For `O=C(/C=C/c1ccccc1N1CCC(NS(=O)(=O)c2cccnc2)CC1)NO` [Example I-221, (E)-N-hydroxy-3-(2-(4-(pyridine-3-sulfonamido)piperidin-1-yl)phenyl)acrylamide] the value was less than 1000 nM; for `O=C(/C=C/c1ccccc1N1CCC(NS(=O)(=O)c2ccc(F)cc2)CC1)NO` [Example I-222, (E)-3-(2-(4-((4-fluorophenyl)sulfonamido)piperidin-1-yl)phenyl)-N-hydroxyacrylamide], less than 1000 nM.
In the case of `O=C(/C=C/c1ccccc1N1CCC(NS(=O)(=O)c2ccc(Cl)cc2)CC1)NO` [Example I-223, (E)-3-(2-(4-((4-chlorophenyl)sulfonamido)piperidin-1-yl)phenyl)-N-hydroxyacrylamide], the concentration for half-maximal inhibition (IC50) is less than 1000 nM.
In the case of `O=C(/C=C/c1ccccc1N1CCC(NS(=O)(=O)c2ccc(C(F)(F)F)cc2)CC1)NO` [Example I-224, (E)-N-hydroxy-3-(2-(4-((4-(trifluoromethyl)phenyl)-sulfonamido)piperidin-1-yl)phenyl)acrylamide], the IC50 was less than 1000 nM.
In the case of `CC(C)c1ccc(S(=O)(=O)NC2CCN(c3ccccc3/C=C/C(=O)NO)CC2)cc1` [Example I-225, (E)-N-hydroxy-3-(2-(4-((4-isopropylphenyl)sulfon-amido)piperidin-1-yl)phenyl)acrylamide] it was less than 1000 nM.
For `O=C(/C=C/c1ccccc1N1CCC(NS(=O)(=O)c2ccc(C(F)(F)F)nc2)CC1)NO` [Example I-226, (E)-N-hydroxy-3-(2-(4-((6-(trifluoromethyl)pyridine)-3-sulfonamido)piperidin-1-yl)phenyl)acrylamide] the value was less than 1000 nM; for `CCS(=O)(=O)NC1CCN(c2ccccc2/C=C/C(=O)NO)CC1` [Example I-227, (E)-3-(2-(4-(ethylsulfonamido)piperidin-1-yl)phenyl)-N-hydroxyacrylamide], less than 1000 nM; for `O=C(/C=C/c1ccccc1N1CCC(NS(=O)(=O)Cc2ccc(F)cc2)CC1)NO` [Example I-228, (E)-3-(2-(4-(((4-fluorophenyl)methyl)sul-fonamido)piperidin-1-yl)phenyl)-N-hydroxyacrylamide], less than 1000 nM.
For `O=C(/C=C/c1ccccc1N1CCC(NS(=O)(=O)Cc2cccc(Cl)c2)CC1)NO` [Example I-229, (E)-3-(2-(4-(((3-chlorophenyl)methyl)sul-fonamido)piperidin-1-yl)phenyl)-N-hydroxyacrylamide], the IC50 was less than 1000 nM.
In the case of `Cn1ccnc1S(=O)(=O)NC1CCN(c2ccccc2C=CC(=O)NO)CC1` [Example I-230, (E)-N-hydroxy-3-(2-(4-((1-methyl-1H-imidazole)-2-sulfonamido)-piperidin-1-yl)phenyl)acrylamide] it was less than 1000 nM; in that of `O=C(/C=C/c1ccccc1N1CCC(NS(=O)(=O)c2ccc3c(c2)OCCO3)CC1)NO` [Example I-231, (E)-3-(2-(4-((2,3-dihydrobenzo[b][1,4]dioxine)-6-sulfonamido)piperidin-1-yl)phenyl)-N-hydroxyacrylamide], less than 1000 nM; in that of `O=C(/C=C/c1ccccc1N1CCC(NS(=O)(=O)c2cccc3cnccc23)CC1)NO` [Example I-232, (E)-N-hydroxy-3-(2-(4-(isoquinoline-5-sulfonamido)piperidin-1-yl)phenyl)acrylamide], less than 1000 nM.
`COc1ccc(S(=O)(=O)NC2CCN(c3ccccc3/C=C/C(=O)NO)CC2)cc1OC` [Example I-233]: the concentration for half-maximal inhibition (IC50) was less than 1000 nM.
For `O=C(/C=C/c1ccccc1N1CCC(NS(=O)(=O)c2ccc(OC(F)F)cc2)CC1)NO` [Example I-234, (E)-3-(2-(4-((4-(difluoromethoxy)phenyl)sulfonamido)piperidin-1-yl)phenyl)-N-hydroxyacrylamide] the value was less than 1000 nM.
In the case of `O=C(/C=C/c1ccccc1N1CCC(NS(=O)(=O)Cc2cccc(F)c2)CC1)NO` [Example I-235, (E)-3-(2-(4-(((3-fluorophenyl)methyl)sul-fonamido)piperidin-1-yl)phenyl)-N-hydroxyacrylamide], the IC50 is less than 1000 nM.
In the case of `O=C(/C=C/c1ccccc1N1CCC(NS(=O)(=O)c2ccc3c(c2)NC(=O)CO3)CC1)NO` [Example I-236, (E)-N-hydroxy-3-(2-(4-((3-oxo-3,4-dihydro-2H-benzo[b][1,4]oxazine)-6-sulfonamido)piperidin-1-yl)phenyl)acrylamide] it was less than 1000 nM; in that of `Cn1cnc(S(=O)(=O)NC2CCN(c3ccccc3/C=C/C(=O)NO)CC2)c1` [Example I-237, (E)-N-hydroxy-3-(2-(4-((1-methyl-1H-imidazole)-4-sulfonamido)piperidin-1-yl)phenyl)acrylamide], less than 1000 nM; in that of `COc1ccccc1S(=O)(=O)NC1CCN(c2ccccc2/C=C/C(=O)NO)CC1` [Example I-238, (E)-N-hydroxy-3-(2-(4-((2-methoxyphenyl)sulfon-amido)piperidin-1-yl)phenyl)acrylamide], less than 1000 nM.
On to `O=C(/C=C/c1ccccc1N1CCC(NS(=O)(=O)Cc2ccc(Cl)cc2F)CC1)NO` [Example I-239, (E)-3-(2-(4-(((4-chloro-2-fluorophenyl)methyl)sul-fonamido)piperidin-1-yl)phenyl)-N-hydroxyacrylamide], for which the IC50 was less than 1000 nM.
For the compound `O=C(/C=C/c1ccccc1N1CCC(NS(=O)(=O)c2ccc(CNC(=O)c3ccccc3)s2)CC1)NO` [Example I-240, (E)-N-((5-(N-(1-(2-(3-(hydroxyamino)-3-oxoprop-1-en-1-yl)phenyl)piperidin-4-yl)sulfamoyl)thiophen-2-yl)methyl)benzamide], the IC50 is less than 1000 nM.
In the case of `O=C(/C=C/c1ccccc1N1CCC(NS(=O)(=O)C2CC2)CC1)NO` [Example I-241], the half-inhibitory concentration (IC50) is less than 1000 nM.
With `COc1ccc(OC)c(S(=O)(=O)NC2CCN(c3ccccc3/C=C/C(=O)NO)CC2)c1` [Example I-242, (E)-3-(2-(4-((2,5-dimethoxyphenyl)sulfon-amido)piperidin-1-yl)phenyl)-N-hydroxyacrylamide], the IC50 is less than 1000 nM.
For `Cc1nn(C)c(Cl)c1S(=O)(=O)N1CCN(c2ccccc2/C=C/C(=O)NO)CC1` [Example I-243, (E)-3-(2-(4-((5-chloro-1,3-dimethyl-1H-pyrazol-4-yl)sulfonyl)piperazin-1-yl)phenyl)-N-hydroxyacrylamide] the value was less than 1000 nM; for `Cn1ccc(S(=O)(=O)N2CCN(c3ccccc3/C=C/C(=O)NO)CC2)n1` [Example I-244, (E)-N-hydroxy-3-(2-(4-((1-methyl-1H-pyrazol-3-yl)sulfonyl)piperazin-1-yl)phenyl)acrylamide], less than 1000 nM.
`Cc1noc(C)c1S(=O)(=O)N1CCN(c2ccccc2/C=C/C(=O)NO)CC1` [Example I-245, (E)-3-(2-(4-((3,5-dimethylisoxazol-4-yl)sulfonyl)piperazin-1-yl)phenyl)-N-hydroxyacrylamide]: the concentration for half-maximal inhibition (IC50) is less than 1000 nM.
As to `Cc1ccccc1S(=O)(=O)N1CCN(c2ccccc2/C=C/C(=O)NO)CC1` [Example I-247, (E)-N-hydroxy-3-(2-(4-(o-tolylsulfonyl)piperazin-1-yl)phenyl)acrylamide], the half-maximal inhibitory concentration (IC50) is less than 1000 nM.
For `O=C(/C=C/c1ccccc1N1CCN(S(=O)(=O)c2ccc(C(F)(F)F)nc2)CC1)NO` [Example I-248, (E)-N-hydroxy-3-(2-(4-((6-(trifluoromethyl)pyridin-3-yl)sulfonyl)piperazin-1-yl)phenyl)acrylamide], the 50% inhibitory concentration (IC50) was less than 1000 nM.
For `CC(C)S(=O)(=O)N1CCN(c2ccccc2/C=C/C(=O)NO)CC1` [Example I-249, (E)-N-hydroxy-3-(2-(4-(isopropylsulfonyl)piper-azine-1-yl)phenyl)acrylamide], the IC50 was less than 1000 nM.
Consider `O=C(/C=C/c1ccccc1N1CCN(S(=O)(=O)C2CCCC2)CC1)NO` [Example I-250], for which the 50% inhibitory concentration (IC50) is less than 1000 nM.

In general, IC50 refers to the concentration that inhibits the measured activity by half.
